# Data as given in ChEMBL document CHEMBL1131781, “Design and synthesis of diaminopyrrolidinone inhibitors of human osteoclast cathepsin K” (Bioorg Med Chem Lett, 1999).
# pKi: −log10 of the molar value.
# Target: T1, Cathepsin K (Homo sapiens, UniProt P43235)
# T1 sequence (P43235 whole entry): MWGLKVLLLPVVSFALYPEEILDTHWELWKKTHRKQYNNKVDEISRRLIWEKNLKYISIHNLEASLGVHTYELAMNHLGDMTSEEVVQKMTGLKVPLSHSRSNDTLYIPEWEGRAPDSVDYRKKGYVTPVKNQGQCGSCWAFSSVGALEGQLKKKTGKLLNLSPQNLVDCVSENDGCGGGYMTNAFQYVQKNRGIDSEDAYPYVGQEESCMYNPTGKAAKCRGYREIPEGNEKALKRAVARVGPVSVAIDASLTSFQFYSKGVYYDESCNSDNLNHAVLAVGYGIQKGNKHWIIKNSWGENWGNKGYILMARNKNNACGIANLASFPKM
# Assay: Compound was tested for its inhibitory activity against human osteoclast cathepsin K
row,SMILES,pKi
1,CC(C)C[C@H](NC(=O)OCc1ccccc1)c1nc(C(=O)NN2CC[C@@](CC(C)C)(NC(=O)OCc3ccccc3)C2=O)cs1,7.48
2,CC(C)C[C@H](NC(=O)OCc1ccccc1)C(=O)NNC(=O)c1csc([C@H](CC(C)C)NC(=O)OCc2ccccc2)n1,8.00
3,CC(C)C[C@H](NC(=O)OCc1ccccc1)c1nc(C(=O)NN2CC[C@@H](NC(=O)OCc3ccccc3)C2=O)cs1,6.48
